Measurements from patent US7456225B1, “Liver protection compounds of the cyclohexenone type from Antrodia camphorata” (Golden Biotechnology Corporation, priority 2007, dated 2008).

Legend:
[1] = Body weights of rats in CCl4 liver injury model; type: in vivo, Sprague-Dawley (SD) rats; details: CCl4-treated rats, stomach tube, 8th week
Experimental: The animal model was performed with five-week-old Sprague-Dawley (SD) rats purchased from BioLasco Taiwan Co., Ltd. Healthy rats weighing 220-270 g were chosen for experiment after observing for 2 weeks in the laboratory animal room. The rats were randomly divided into 6 groups (12 rats/group): normal (gp. A); control groups including model control (gp. B) and positive control (gp. C, animals receiving silymarin); treatment groups including animals receiving 300 mg/kg of cyclohexenone (gp. D), 1000 mg/kg of cyclohexenone (gp. E), and 3000 mg/kg of cyclohexenone (gp. F), as indicated in Table 1. Only normal group was not poisoned with CCl4. The body weights were recorded to calculate the dosage. […] It helps to remove toxins from liver cells by either neutralizing the toxicity of toxic compounds or competing with the binding sites in liver. It is a potent antioxidant, protects the liver from free radicals. It has been widely studied for treating various types of liver injury in animals and clinical trials. The beneficial effects on liver protection have made silymarin a good medicine for liver diseases and a drug in positive control group for the animal model of liver injury. Rats in normal group (group A) were fed with corn oil (Sigma chemical co.) by means of stomach tubes. Carbon tetrachloride (Shimakyu, Osaka, Japan) was administered to groups B to F via stomach tubes twice weekly (every Tuesday and Thursday afternoon) for 8 weeks, at a dose of 2 ml/kg of body weight, diluted with corn oil. Silymarin was prepared with saline in an amount of 200 mg/kg of body weight and was fed to rats of group C via a stomach tube. Cyclohexenone prepared from example 1 was mixed with saline, and fed in the amounts of 300 mg/kg, 1000 mg/kg and 3000 mg/kg of body weight to rats of group D to F via stomach tubes. The total feeding volume was estimated in the ratio of 10 ml/kg of body weight to groups C to F five days a week (every morning) for 8 weeks. The body weights of rats and the amounts of food intake in rats for each group were shown in FIG. 1 and FIG. 2, respectively. […]

[2] = tested on: CCl4 induced liver injury in rats; assay: Serum indicators of liver function (ALT, AST, cholesterol); type: in vivo, Sprague-Dawley (SD) rats; details: CCl4-treated rats, 8 weeks
Experimental: The animal model was performed with five-week-old Sprague-Dawley (SD) rats purchased from BioLasco Taiwan Co., Ltd. Healthy rats weighing 220-270 g were chosen for experiment after observing for 2 weeks in the laboratory animal room. The rats were randomly divided into 6 groups (12 rats/group): normal (gp. A); control groups including model control (gp. B) and positive control (gp. C, animals receiving silymarin); treatment groups including animals receiving 300 mg/kg of cyclohexenone (gp. D), 1000 mg/kg of cyclohexenone (gp. E), and 3000 mg/kg of cyclohexenone (gp. F), as indicated in Table 1. Only normal group was not poisoned with CCl4. The body weights were recorded to calculate the dosage. […] It helps to remove toxins from liver cells by either neutralizing the toxicity of toxic compounds or competing with the binding sites in liver. It is a potent antioxidant, protects the liver from free radicals. It has been widely studied for treating various types of liver injury in animals and clinical trials. The beneficial effects on liver protection have made silymarin a good medicine for liver diseases and a drug in positive control group for the animal model of liver injury.
Rats in normal group (group A) were fed with corn oil (Sigma chemical co.) by means of stomach tubes. Carbon tetrachloride (Shimakyu, Osaka, Japan) was administered to groups B to F via stomach tubes twice weekly (every Tuesday and Thursday afternoon) for 8 weeks, at a dose of 2 ml/kg of body weight, diluted with corn oil. Silymarin was prepared with saline in an amount of 200 mg/kg of body weight and was fed to rats of group C via a stomach tube. Cyclohexenone prepared from example 1 was mixed with saline, and fed in the amounts of 300 mg/kg, 1000 mg/kg and 3000 mg/kg of body weight to rats of group D to F via stomach tubes. The total feeding volume was estimated in the ratio of 10 ml/kg of body weight to groups C to F five days a week (every morning) for 8 weeks. The body weights of rats and the amounts of food intake in rats for each group were shown in FIG. 1 and FIG. 2, respectively.
All rats were sacrificed at the end of the 8th week of experiment, blood samples were collected from abdominal aorta for assessing liver biochemical parameters. Five ml of blood were transferred to a tube and centrifuged at 775×g for 15 min. 0.5 ml of serum was analyzed on an Express plus automatic clinical chemistry analyzer (Chiron diagnostics corporation, OH, USA) with commercial kits of ALT (Bayer diagnostics, Cat No. E36941), AST (Bayer diagnostics, Cat No. E37041) and cholesterol (Bayer diagnostics, Cat No. E33940). All values are expressed as mean ±SD, which were evaluated using One-way Analysis of Variance. Those with significant differences were further tested with the Least Significant Difference Test (LSD) or Student t-test to compare cyclohexenone treatment groups and normal groups, positive control and model groups. P<0.05 was selected as criterion for statistical significance in all cases.

[3] = cyclohexenone 1000 mg/kg, listed as cyclohexenone

`COC1=C(OC)C(O)C(C/C=C(\C)CC/C=C(\C)CCC=C(C)C)C(C)C1=O` (centres unmarked) [Cyclohexenone from Antrodia camphorata, 4-hydroxy-2,3-dimethoxy-6-methyl-5(3,7,11-trimethyl-dodeca-2,6,10-trienyl)-cyclohex-2-enone] showed a body weight ([1]; cyclohexenone 300 mg/kg) of 386.6 g, a body weight ([1]; cyclohexenone 1000 mg/kg) of 365.1 g and a body weight ([1]; cyclohexenone 3000 mg/kg) of 355.0 g. It also gave an ALT ([2]; cyclohexenone 300 mg/kg) of 226.6 ± 138.7 a U/L, an AST ([2]; cyclohexenone 300 mg/kg) of 323.4 ± 189.0 U/L and a Cholesterol ([2]; cyclohexenone 300 mg/kg) of 63.7 ± 15.1 mg/dL. It also gave an ALT ([2]; cyclohexenone 1000 mg/kg) of 181.7 ± 78.4 a U/L, an AST ([2]; cyclohexenone 1000 mg/kg) of 283.2 ± 144.2 U/L and a Cholesterol ([2]; cyclohexenone 1000 mg/kg) of 69.6 ± 14.8 mg/dL. The ALT [2, 3] was 181.7±78.4 U/L, the AST [2, 3] was 283.2±144.2 U/L and the ALT ([2]; cyclohexenone 3000 mg/kg) was 206.0 ± 98.4 a U/L. For the same compound, the AST ([2]; cyclohexenone 3000 mg/kg) was 311.7 ± 99.6 U/L and the Cholesterol ([2]; cyclohexenone 3000 mg/kg) was 62.1 ± 16.2 mg/dL.
